Assay results published in patent US20130030025A1, “USE OF POTASSIUM CHANNEL BLOCKERS TO TREAT CEREBRAL PALSY” (priority 2011, published 2013).
“And” between values parts separate entries of the source, which are not always exact repeats. Identical values can stand only once.

How the values were obtained:
[1] = tested on: middle cerebral artery occlusion (MCAO) in rats; assay: Cylinder test, total movement after MCAO; type: in vivo, Sprague Dawley rats
Procedure: The Y axis represents the behavioral score. […] Treatment groups: Dosing was started 4 weeks after pMCAO surgery. During these 4 weeks, weekly behavioral assessments, as defined below, were performed. Two dose levels of 4-AP plus vehicle control were assessed, with treatment starting at 4 weeks after ischemic event. All dosing was via gastric gavage, volume not to exceed 2 mL/kg. Animals were given the first dose and behavioral assessments were performed starting 60 minutes after dosing. Animals then received the second dose that day at the appropriate time and b.i.d (preferably every 12 hours) thereafter for 2 more days (3 total days of dosing, 5 total doses). One hour after the 5th dose, animals were subjected to behavioral assessments as defined below. Following the final behavioral assessment, drug was withdrawn for 10 or 11 days, behavior was re-assessed, and then animals were re-challenged with a cross-over treatment (Phase II of Table 1B) as described in Tables 1A, 1B, followed by the same behavioral testing and dosing regimen. This cross-over was repeated one more time as well (Phase III of Table 1B) (see FIG. 2). Behavioral test details: Behavioral evaluations were done by investigators blinded to treatment assignment. As described above, behavioral assessments were timed exactly with dosing times. Animals were given the first dose, behavioral assessments were performed starting 60 minutes later, and blood was collected 90 minutes after dosing. Animals then received the second dose that day at the appropriate time and b.i.d (preferably every 12 hours) thereafter for 2 more days (3 total days of dosing, 5 total doses). One hour after the 5th dose, animals were subjected to behavioral testing. Following the final behavioral assessment, drug was withdrawn for 10 or 11 days, behavior was re-assessed, and then animals were re-challenged with a cross-over treatment as described in Tables 1A, 1B, and FIG. 2, followed by the same behavioral testing and dosing regimen. Evaluation was performed at Day -1 (pre-operation), Day 7, Day 21, Day 30, Day 32, Day 44, Day 46, Day 58, Day 60. This test assessed limb use asymmetry. Rats were placed in a transparent cylinder (20 cm in diameter and 30 cm in height) for 3-6 minutes. A mirror was placed behind the cylinder to determine forelimb movements when animal was turned away from the camera. […] Simultaneous use of both left and right forelimbs while contacting the wall during a full rear was also scored. A total number of 20 forelimb placings were counted during a trial. Data was expressed in terms of percent use of the non-impaired and or impaired forelimb relative to the total number of limb use observations for wall movements.

[2] = tested on: middle cerebral artery occlusion (MCAO) in rats; assay: Cylinder test, overall limb-use asymmetry (%) after MCAO; type: in vivo, Sprague Dawley rats; conditions: for Cylinder Test Score (Overall Asymmetry (%)): individual animals
Procedure: 4-AP was evaluated for its ability to promote functional sensorimotor improvement following ischemic stroke in rats with stable motor deficits at times remote from their ischemic events. The animal model mimics the conditions in human ischemic stroke and is produced by middle cerebral artery occlusion (MCAO), which results in extensive infarction in cerebral cortex and striatum, including the cortical spinal tract (white matter). In particular, the MCAO model in Sprague Dawley rats that was utilized in the experiments presented below mimics the conditions in human ischemic stroke. In this experiment, Sprague Dawley rats were anesthetized, subjected to a surgery resulting in middle cerebral artery occlusion (MCAO), treated with and without 4-aminopyridine and behavioral assessments were performed as described below. Surgical Procedure: A small focal stroke (infarct) was made on the right side of the surface of the brain (cerebral cortex) by middle cerebral artery occlusion (MCAO). The right side of the head was shaved with electric clippers (patch of approx 3×5 cm between eye and ear). The region was carefully cleaned with septisol. Using aseptic technique, an incision was made midway between the eye and eardrum canal. The temporalis muscle was isolated, bisected, and reflected. A small window of bone was removed via drill and rongeurs (subtemporal craniectomy) to expose the middle cerebral artery (MCA). Care was taken not to remove the zygomatic arch or to transect the facial nerve that would impair the ability of the animal to chew after surgery. […] The MCA was then transected. The temporalis muscle was then repositioned, and the incision was closed subcutaneously with sutures. The skin incision was closed with surgical staples (2-3 required). Throughout the procedure, body temperature was maintained at 37.0°±1° C., using a self-regulating heating pad connected to a rectal thermometer. Dosing: Rats were treated in accordance with the dosing schedule shown in Tables 1A, 1B, and FIG. 2, with each Phase being a two week period of time. A solution of 4-AP was used in this experiment. Dosing was started at 4 weeks after ischemic event. Treatment groups: Dosing was started 4 weeks after pMCAO surgery. During these 4 weeks, weekly behavioral assessments, as defined below, were performed. Two dose levels of 4-AP plus vehicle control were assessed, with treatment starting at 4 weeks after ischemic event. All dosing was via gastric gavage, volume not to exceed 2 mL/kg. Animals were given the first dose and behavioral assessments were performed starting 60 minutes after dosing. Animals then received the second dose that day at the appropriate time and b.i.d (preferably every 12 hours) thereafter for 2 more days (3 total days of dosing, 5 total doses). One hour after the 5th dose, animals were subjected to behavioral assessments as defined below. Following the final behavioral assessment, drug was withdrawn for 10 or 11 days, behavior was re-assessed, and then animals were re-challenged with a cross-over treatment (Phase II of Table 1B) as described in Tables 1A, 1B, followed by the same behavioral testing and dosing regimen. This cross-over was repeated one more time as well (Phase III of Table 1B) (see FIG. 2). Behavioral test details: Behavioral evaluations were done by investigators blinded to treatment assignment. As described above, behavioral assessments were timed exactly with dosing times. Animals were given the first dose, behavioral assessments were performed starting 60 minutes later, and blood was collected 90 minutes after dosing. Animals then received the second dose that day at the appropriate time and b.i.d (preferably every 12 hours) thereafter for 2 more days (3 total days of dosing, 5 total doses). One hour after the 5th dose, animals were subjected to behavioral testing. […]

Nc1ccncc1 [4-AP, 4-aminopyridine]
Cylinder Test (Total Movement), Mean ([1]; Group I, D30, first dosing phase (high dose, inferred)): 9.47 | Cylinder Test (Total Movement), Mean ([1]; Group I, D32, first dosing phase (high dose, inferred)): 16.20 | Cylinder Test (Total Movement), Mean ([1]; Group I, D44, second dosing phase (low dose, inferred)): 39.20 | Cylinder Test (Total Movement), Mean ([1]; Group I, D46, second dosing phase (low dose, inferred)): 23.87 | Cylinder Test (Total Movement), Mean ([1]; Group II, D30, N 15): 46.87 | Cylinder Test (Total Movement), Mean ([1]; Group II, D32, N 15): 36.20 | Cylinder Test (Total Movement), Mean ([1]; Group II, D58, N 15): 11.60 | Cylinder Test (Total Movement), Mean ([1]; Group II, D60, N 15): 12.93 | Cylinder Test (Total Movement), Mean ([1]; Group III, D44, N 15): 19.13 | Cylinder Test (Total Movement), Mean ([1]; Group III, D46, N 15): 18.73 | Cylinder Test (Total Movement), Mean ([1]; Group III, D58, N 15): 32.33 | Cylinder Test (Total Movement), Mean ([1]; Group III, D60, N 15): 26.67 | Cylinder Test Score (Overall Asymmetry (%)), Mean ([2]; Group II, D30, first dosing phase (low dose, inferred)): 26.98% | Cylinder Test Score (Overall Asymmetry (%)), Mean ([2]; Group II, D32, first dosing phase (low dose, inferred)): 23.50% | Cylinder Test Score (Overall Asymmetry (%)), Mean ([2]; Group II, D58, third dosing phase (high dose, inferred), N 12): 35.52% | Cylinder Test Score (Overall Asymmetry (%)), Mean ([2]; Group II, D60, third dosing phase (high dose, inferred), N 14): 4.43% | Cylinder Test Score (Overall Asymmetry (%)), Mean ([2]; Group III, D44, second dosing phase (high dose, inferred), N 13): 27.98% | Cylinder Test Score (Overall Asymmetry (%)), Mean ([2]; Group III, D46, second dosing phase (high dose, inferred), N 13): 10.17% | Cylinder Test Score (Overall Asymmetry (%)), Mean ([2]; Group III, D58, third dosing phase (low dose, inferred)): 12.32% | Cylinder Test Score (Overall Asymmetry (%)), Mean ([2]; Group III, D60, third dosing phase (low dose, inferred)): 3.23% | Cylinder Test Score (Overall Asymmetry (%)), Mean ([2]; group mean N=10, Group I, Phase 1, D30, High 4-AP 2.0 mg/kg b.i.d. p.o., after first dose): 17.78% | Cylinder Test Score (Overall Asymmetry (%)), Mean ([2]; group mean N=13, Group I, Phase 1, D32, High 4-AP 2.0 mg/kg b.i.d. p.o., after 5th dose): −15.95% | Cylinder Test Score (Overall Asymmetry (%)), Mean ([2]; group mean N=13, Group I, Phase 2, D46, Low 4-AP 0.63 mg/kg b.i.d. p.o., after 5th dose): 16.29% | Cylinder Test Score (Overall Asymmetry (%)), Mean ([2]; group mean N=15, Group I, Phase 2, D44, Low 4-AP 0.63 mg/kg b.i.d. p.o., after first dose): 10.38% | Cylinder Test Score (Overall Asymmetry (%)) ([2]; Group I, Phase 1, D30, High 4-AP 2.0 mg/kg b.i.d. p.o., after first dose): 9.33% and 0.00% and 50.00% (3×) and 16.67% and 38.46% and −16.67% and −100.00% and 80.00% | Cylinder Test Score (Overall Asymmetry (%)) ([2]; Group I, Phase 1, D32, High 4-AP 2.0 mg/kg b.i.d. p.o., after 5th dose): 36.36% and 24.07% and 22.73% and 5.13% and −30.00% and −100.00% (2×) and 50.00% (2×) and −60.00% and −65.79% and 16.67% and −56.52% | Cylinder Test Score (Overall Asymmetry (%)) ([2]; Group I, Phase 2, D44, Low 4-AP 0.63 mg/kg b.i.d. p.o., after first dose): 60.71% and 25.81% and 39.58% and 22.81% and 31.91% and 33.33% (2×) and 39.02% and −45.45% and −60.00% and −56.06% and 40.00% and 9.30% and 10.00% and −28.57% | Cylinder Test Score (Overall Asymmetry (%)) ([2]; Group I, Phase 2, D46, Low 4-AP 0.63 mg/kg b.i.d. p.o., after 5th dose): 63.64% and 14.89% and 30.23% and 33.33% (3×) and 36.96% and −8.33% (2×) and 25.00% and −100.00% and 50.00% and 7.69% | effect on body symmetry and coordination (cylinder test) ([2]; rats after MCAO, reversible and dose-dependent): effective to improve the asymmetry in limb usage
